Data as given in patent EP0974573A1, “PHENYLPROPENONE COMPOUNDS AND MEDICINES CONTAINING THE SAME” (Kabushiki Kaisha Yakult Honsha, priority 1997, dated 1998).

Key:
[1] = system: rat-derived ACAT; test: Inhibitory effects on rat-derived ACAT (Test 1); format: biochemical; details: crude enzyme from microsome protein fractions of rat liver, (14C)-oleoyl-CoA substrate, 37°C
Experimental: To test effects on ACAT, a reaction was conducted in vitro to form (^14C)-cholesteryl oleate from endogeneous cholesterol in the presence of (^14C)-oleoyl-CoA as a substrate by using a crude enzyme prepared from microzome protein fractions of a rat liver.
The reaction mixture had the following composition: 20 µℓ of microsome protein (1.83 mg/mℓ), 20 µℓ of (^14C)-oleoyl-CoA (5 µCi/mℓ, BSA: 96 nmol/mℓ), 106 µℓ of 100 mM phosphate buffer (containing 5 mM of dithiothreitol, pH 7.4) and a sample dissolved in 4 µℓ of methanol or dimethyl sulfoxide; 150 µℓ in total.
The reaction was conducted at 37°C. After an elapse of a predetermined reaction time (18 minutes in general), a 2:1 mixture of chloroform and methanol (5.65 mℓ) was added to terminate the reaction. A 0.04 N aquous solution of hydrochloric acid (0.98 mℓ) and as a carrier, cholesteryl oleate were added, followed by extraction for 20 minutes on a shaking apparatus. The mixture was then allowed to stand overnight in a cold dark place. On the following day, the separated lower chloroform layer was extracted in its entirety and was dried under a nitrogen gas stream. The remaining upper layer was added with the lower layer (5.65 mℓ) of the Folch's partition solution, and was extracted again. After the mixture was allowed to stand overnight in a dark place, the lower layer was drawn in its entirety. This lower layer was combined with the lower chloroform layer fraction, which had already been dried to solid, and the mixture was then dried to solid.
The solid was then dissolved in chlorofrom (200 µℓ), and the solution was coated in its entirety on a G60 plate (aluminum sheet) for silica gel thin layer chromatography. After the solid was developedover 10 cm with a 10:190 mixture of diethyl ether and petroleum ether, autoradiography was conducted and the formation of (^14C)-colesteryl oleate was confirmed. This section was then cut off. The radioactivity of each sample was measured by subjecting it to liquid scintillation counting for 5 minutes in toluene or was measured for 30 minutes by a "Betascope" (manufactured by BETA-GEN INC. The results so obtained are shown in Table 1. Table 1

[2] = system: J774.1 strain, an established cell line of mouse macrophage; test: Inhibitory effects on the accumulation of cholesterol esters in macrophage (Test 2); format: cell-based; details: J774.1 mouse macrophage, 12 hours incubation with cholesterol liposomes
Experimental: Inhibitory effects on the accumulation of cholesterol esters in macrophage were tested using J774.1 strain, an established cell line of mouse macrophage.
Metabolism of LDL in endothelial cells or smooth muscle cells causes downregulation of the LDL receptor by excess free cholesterol in the cells, but in a macrophage, uptake of modified lDL takes place via a scavenger receptor. As no regulation is applied to this pathway, cholesterol esters progressively accumulate without any limitation.
It was therefore studied whether or not corydaline would inhibit intracellular accumulation of cholesterol esters by having liposomes, which were formed of […] cholesterol and phosphatidylcholine, uptaken in macrophage cells and then causing them to act on acyl-CoA:cholesterol acyltransferase which existed on rough-surfaced endoplasmic reticula.
The macrophage cells were incubated for 2 days under 5% CO2 on an RPMI 1640 medium (product of NISSUI PHARMACEUTICAL CO., LTD.) which had been added with 10% fetal bovine serum, penicilin (50 U/mℓ) and streptomycin (50 µg/mℓ). Trypsinization was then conducted, and cells attached to the bottom of each well were peeled off and formulated into a cell suspension. The cells were washed with a fresh supply of the above-described culture medium, and the cell solution was then seeded at 2 x 10^6 cells/mℓ on a 24-well multiple well plate ("25820-24", product of CORNING INC.). After incubation at 37°C under 5% CO2 for 37 hours, the culture medium was replaced with a fresh supply of the above-described culture medium and, after a 0.3 M glucose solution (40 µℓ) with cholesterol [80 µg; containing 0.4 µCi of (^3H)-cholesterol] and phosphatidylcholine (160 µg) contained therein and a methanol solution (10 µℓ)with a test sample dissolved therein were added, incubation was conducted for 12 hours. These procedures were carried out aseptically.
After completion of the incubation, cells attached to each bottom were washed 5 times with a serum-free RPMI 1640 medium by a graduated pipet, and isopropanol (1 mℓ) was added to extract intracellular cholesterol and formed cholesterol esters. The extract was coated in its entirety on a silica gel thin layer chromatography ("Art 5553", product of MERCK & Co., INC.) and subsequent to development with a 80:20:2 mixture of hexane, ethyl ether and formic acid, autoradiography was performed.
A section, which contained ^3H-labelled cholesterol esters and cholesterol, was cut off. Its radioactivity was measured by a liquid scintillation counter and compared with a control, whereby a cholesterol ester accumulation inhibition rate was determined.

Molecule | IC50 [1] | IC50 [2] | IC50 ([2]; Mus musculus, J774.1, 12 h)
COc1cc(/C=C/C(=O)N2CCN(c3ccc(C)c(C)c3)CC2)cc(OC)c1OCc1ccccc1 [Compound 11, N-[4-(3,4-dimethylphenyl)-1,4-diazacyclohexyl]-(2E)-(3,5-dimethoxy-4-benzyloxyphenyl)-2-propenamide] | 60 nM | 189 nM | –
CCCCCCOc1c(OC)cc(/C=C/C(=O)N2CCN(c3ccc(C)cc3C)CC2)cc1OC [Compound 13] | 79 nM | 200 nM | –
CCCCCCCCCCCCOc1c(OC)cc(/C=C/C(=O)NN2CCN(c3ccc(C)cc3C)CC2)cc1OC [Compound 19, N-[4-(2,4-dimethylphenyl)-1,4-diazacyclohexyl]-(2E)-3-(3,5-dimethoxy-4-dodecyloxyphenyl) -2-propenamide] | 70 nM | – | 250 nM
COc1cc(/C=C/C(=O)NCc2ccccc2)cc(OC)c1OCc1ccccc1 [Compound 58, N-benzyl-(2E)-3-(3,5-dimethoxy-4-benzyloxyphenyl)-2-propenamide] | – | – | 930 nM
COc1cc(/C=C/C(=O)NCCc2ccccc2)cc(OC)c1OCc1ccccc1 [Compound 59, N-(2-phenyl)ethyl-(2E)-3-(3,5-dimethoxy-4-benzyloxyphenyl)-2-propenamide] | – | – | 620 nM
COc1cc(/C=C/C(=O)NCCCc2ccccc2)cc(OC)c1OCc1ccccc1 [Compound 60, N-(3-phenyl)propyl-(2E)-3-(3,5-dimethoxy-4-benzyloxyphenyl)-2-propenamide] | – | – | 870 nM
COc1cc(/C=C/C(=O)NCCCCc2ccccc2)cc(OC)c1OCc1ccccc1 [Compound 61, N-(4-phenyl)butyl-(2E)-3-(3,5-dimethoxy-4-benzyloxyphenyl)-2-propenamide] | – | – | 840 nM
COc1cc(/C=C/C(=O)NC2CCN(Cc3ccccc3)CC2)cc(OC)c1OCc1ccccc1 [Compound 62, N-[4-(1-benzyl)piperidino]-(2E)-3-(3,5-dimethoxy-4-benzyloxyphenyl)-2-propenamide] | – | 840 nM | –
COc1cc(/C=C/C(=O)Nc2ccc(C)cc2C)cc(OC)c1OCc1ccccc1 [Compound 63, N-(2,4-dimethylphenyl)-(2E)-3-(3,5-dimethoxy-4-benzyloxyphenyl)-2-propenamide] | 52 nM | – | 520 nM
COc1cc(/C=C/C(=O)Nc2cccc(C)c2C)cc(OC)c1OCc1ccccc1 [Compound 64, N-(2,3-dimethylphenyl)-(2E)-3-(3,5-dimethoxy-4-benzyloxyphenyl)-2-propenamide] | 35 nM | – | 900 nM
COc1cc(/C=C/C(=O)Nc2ccc(C)c(C)c2)cc(OC)c1OCc1ccccc1 [Compound 65, N-(3,4-dimethylphenyl)-(2E)-3-(3,5-dimethoxy-4-benzyloxyphenyl)-2-propenamide] | 47 nM | – | 46 nM
COc1cc(/C=C/C(=O)Nc2c(C)cccc2C)cc(OC)c1OCc1ccccc1 [Compound 66, N-(2,6-dimethylphenyl)-(2E)-3-(3,5-dimethoxy-4-benzyloxyphenyl)-2-propenamide] | 47 nM | – | 900 nM
COc1cc(/C=C/C(=O)Nc2c(C)cc(C)cc2C)cc(OC)c1OCc1ccccc1 [Compound 67, N-(2,4,6-trimethylphenyl)-(2E)-3-(3,5-dimethoxy-4-benzyloxyphenyl)-2-propenamide] | – | – | 870 nM
COc1cc(/C=C/C(=O)Nc2c(C(C)C)cccc2C(C)C)cc(OC)c1OCc1ccccc1 [Compound 68, N-(2,6-diisopropylphenyl)-(2E)-3-(3,5-dimethoxy-4-benzyloxyphenyl)-2-propenamide] | 72 nM | – | 790 nM
COc1cc(/C=C/C(=O)Nc2ccc(C(C)(C)C)cc2)cc(OC)c1OCc1ccccc1 [Compound 69, N-(4-tert-butylphenyl)-(2E)-3-(3,5-dimethoxy-4-benzyloxyphenyl)-2-propenamide] | – | – | 28 nM
COc1cc(/C=C/C(=O)Nc2ccccc2C(C)(C)C)cc(OC)c1OCc1ccccc1 [Compound 70, N-(2-tert-butylphenyl)-(2E)-3-(3,5-dimethoxy-4-benzyloxyphenyl)-2-propenamide] | – | – | 840 nM
COc1cc(/C=C/C(=O)Nc2ccc(C)cc2)cc(OC)c1OCc1ccccc1 [Compound 71, N-(4-methylphenyl)-(2E)-3-(3,5-dimethoxy-4-benzyloxyphenyl)-2-propenamide] | 37 nM | – | 120 nM
COc1ccc(NC(=O)/C=C/c2cc(OC)c(OCc3ccccc3)c(OC)c2)cc1 [Compound 72, N-(4-methoxyphenyl)-(2E)-3-(3,5-dimethoxy-4-benzyloxyphenyl)-2-propenamide] | 35 nM | – | 170 nM
COc1cc(/C=C/C(=O)Nc2ccc(OC(C)C)cc2)cc(OC)c1OCc1ccccc1 [Compound 73, N-(4-isopropyloxyphenyl)-(2E)-3-(3,5-dimethoxy-4-benzyloxyphenyl)-2-propenamide] | – | – | 31 nM
COc1cc(/C=C/C(=O)Nc2ccc(N(C)C)cc2)cc(OC)c1OCc1ccccc1 [Compound 74, N-[4-(N',N^'-dimethylamino)phenyl]-(2E)-3-(3,5-dimethoxy-4-benzyloxyphenyl)-2-propenamide] | 90 nM | 990 nM | –
COc1cc(/C=C/C(=O)Nc2ccccc2)cc(OC)c1OCc1ccccc1 [Compound 76, N-phenyl-(2E)-3-(3,5-dimethoxy-4-benzyloxyphenyl)-2-propenamide] | – | – | 490 nM
COc1cc(/C=C/C(=O)Nc2ccc(F)cc2)cc(OC)c1OCc1ccccc1 [Compound 77, N-(4-fluorophenyl)-(2E)-3-(3,5-dimethoxy-4-benzyloxyphenyl)-2-propenamide] | 76 nM | – | 470 nM
COc1cc(/C=C/C(=O)Nc2ccc(Cl)cc2)cc(OC)c1OCc1ccccc1 [Compound 78, N-(4-chlorophenyl)-(2E)-3-(3,5-dimethoxy-4-benzyloxyphenyl)-2-propenamide] | 35 nM | – | 170 nM
COc1cc(/C=C/C(=O)Nc2ccc(Br)cc2)cc(OC)c1OCc1ccccc1 [Compound 79, N-(4-bromophenyl)-(2E)-3-(3,5-dimethoxy-4-benzyloxyphenyl)-2-propenamide] | – | – | 78 nM
COc1cc(/C=C/C(=O)Nc2ccc(I)cc2)cc(OC)c1OCc1ccccc1 [Compound 80, N-(4-iodophenyl)-(2E)-3-(3,5-dimethoxy-4-benzyloxyphenyl)-2-propenamide] | – | – | 43 nM
COc1cc(/C=C/C(=O)Nc2ccc(Cl)c(Cl)c2)cc(OC)c1OCc1ccccc1 [Compound 81, N-(3,4-dichlorophenyl)-(2E)-3-(3,5-dimethoxy-4-benzyloxyphenyl)-2-propenamide] | – | – | 150 nM
COc1cc(/C=C/C(=O)Nc2ccc(Oc3ccccc3)cc2)cc(OC)c1OCc1ccccc1 [Compound 85, N-(4-phenoxyphenyl)-(2E)-3-(3,5-dimethoxy-4-benzyloxyphenyl)-2-propenamide] | – | – | 26 nM
N-[4-(2,4-dimethylphenyl)-1,4-diazacyclohexyl]-(2E)-3-[3,5-dimethoxy-4-(3-phenyl)propyloxy]-2-propenamide [Compound 23] | – | 32 nM | –
